Entries after “also recorded” stand apart in the source; their conditions may differ.
target: T1, TRAF6WTStrepII-Ubc13FH interaction (Homo sapiens, UniProt Q9Y4K3); experiment: ALPHAScreen TRAF6-Ubc13 interaction assay; format: binding; conditions: not given
T1 construct: RING-Zincfinger1 (RZ1) domain (residues 50-159) of human TRAF6 wildtype; made in house; host or cells: E. coli BL21 codon plus RIPL
T1 sequence (Q9Y4K3 with tags, fused parts or gaps): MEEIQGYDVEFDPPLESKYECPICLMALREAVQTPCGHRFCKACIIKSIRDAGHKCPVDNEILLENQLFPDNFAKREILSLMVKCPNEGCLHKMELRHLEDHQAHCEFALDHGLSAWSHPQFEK
From the text: In order to identify small molecules that specifically target the RZ1 domain of TRAF6 and thereby prevent its binding to Ubc13, the ALPHAScreen technology (PerkinElmer) was chosen to detect TRAF6WTStrepII-Ubc13FH interaction in High-Throughput-Screenings as well as Structure Activity Relationship (SAR) analysis.
For performance of an automated ALPHAScreen assay, all following components were pre-diluted in ALPHAScreen buffer (1×PBS, 0.5% BSA, 0.01% Tween-20). First, the TRAF6 protein (end concentration 100 nM, 30 μL volume) was added to 384-well-opti-plates involving the MultiFlo dispensing system (BioTek) followed by transfer of the compounds via the Sciclone G3 transfer station (PerkinElmer). After addition of Ubc13FH (end concentration 75 nM, 10 μL volume) with the MultiFlo system and incubation for one hour at room temperature, both beads (Strep-Tactin Alpha Donor beads and Nickel-Chelate acceptor beads; end concentrations 4 μg each, 10 μL volume each) were mixed and added using the MultiFlo system in subdued light. Read-out of the plates occurred after another hour of incubation at room temperature. Statistical parameters including the coefficient of variation, Z′ factor and signal window were calculated to determine the quality of the HTS campaign. To evaluate the efficacy of the compounds, ALPHAScreen units of compound-treated samples were referred to DMSO control treated samples. Thereby, the TRAF6D57K mutant served as the control for minimum signal and was included on every plate of the screening. Compounds that inhibited TRAF6WTStrepII-Ubc13FH by more than 25% were considered as actives. After elimination of ALPHAScreen frequent hitter compounds and His-tag frequent hitters (Schorpp, K., I. Rothenaigner, E. Salmina, et al., Identification of Small-Molecule Frequent Hitters from AlphaScreen High-Throughput Screens. J Biomol Screen, 2014. 19(5): p. 715-26), 178 compounds were defined as primary hits and were subsequently tested in five-point serial dilution assays (2.5-40 μM) in TRAF6WTStrepII-Ubc13FH ALPHAScreen experiments. Only compounds with dose-dependent effects on TRAF6WTStrepII-Ubc13FH (n=27) were taken for further research. For analog testing, all compounds were analyzed in ten-point titration (0.2-100 μM) in TRAF6WTStrepII-Ubc13FH ALPHAScreen experiments. In parallel, the compounds were tested in the ALPHAScreen TruHits Kit (PerkinElmer) to rule out unspecific interference with the ALPHAScreen technology.

| Compound | inhibition of TRAF6-Ubc13 interaction in ALPHAScreen (in words) |
| --- | --- |
| Cc1nn(-c2ccc3nnc(C)n3n2)c(C)c1CCC(=O)N1CCN(c2ccccc2)CC1 [Example C25, 3-(3,5-dimethyl-1-(3-methyl-[1,2,4]triazolo[4,3-b]pyridazin-6-yl)-1H-pyrazol-4-yl)-1-(4-phenylpiperazin-1-yl)propan-1-one] | promising hit; also recorded: best results in in-vitro and cell-based assays |

same assay, conditions: TRAF6 100 nM, Ubc13FH 75 nM; class symbols; read-out: IC50 Alphascreen (inhibition of TRAF6-UBC13 interaction)

| Compound | IC50 [µM] | inhibition at 100 µM [%] |
| --- | --- | --- |
| Cc1nn(-c2ccc3nnc(C)n3n2)c(C)c1CCC(=O)N1CCN(Cc2cccc3cccnc23)CC1 [Example 153] | ≤ 3 | – |
| Cc1nn(-c2ccc3nnc(C)n3n2)c(C)c1CCC(=O)N1CCN(Cc2cccc(-c3nn[nH]n3)c2)CC1 [Example 154] | ≤ 3 | – |
| Cc1nn(-c2ccc3nnc(C)n3n2)c(C)c1CCC(=O)N1CCN(Cc2cccc(S(C)(=O)=O)c2)CC1 [Example 155] | ≤ 3 | – |
| Cc1nn(-c2ccc3nnc(C)n3n2)c(C)c1CCC(=O)N1CCN(Cc2cccc(NS(C)(=O)=O)c2)CC1 [Example 156] | ≤ 10 | – |
| COc1ccc(CN2CCN(C(=O)CCc3c(C)nn(-c4ccc5nnc(C)n5n4)c3C)CC2)cc1 [Example 157] | ≤ 10 | – |
| Cc1nn(-c2ccc3nnc(C)n3n2)c(C)c1CCC(=O)N1CCN(Cc2cccc(F)c2)CC1 [Example 158] | ≤ 10 | – |
| Cc1nn(-c2ccc3nnc(C)n3n2)c(C)c1CCC(=O)N1CCN(Cc2cccc(C(F)(F)F)c2)CC1 [Example 159] | ≤ 3 | – |
| Cc1ccccc1CN1CCN(C(=O)CCc2c(C)nn(-c3ccc4nnc(C)n4n3)c2C)CC1 [Example 160] | ≤ 3 | – |
| Cc1nn(-c2ccc3nnc(C)n3n2)c(C)c1CCC(=O)N1CCN(Cc2cccc(C3CC3)c2)CC1 [Example 161] | ≤ 3 | – |
| Cc1nn(-c2ccc3nnc(C)n3n2)c(C)c1CCC(=O)N1CCN(Cc2ccc(F)c(C(F)(F)F)c2)CC1 [Example 162] | ≤ 10 | – |
| Cc1nn(-c2ccc3nnc(C)n3n2)c(C)c1CCC(=O)N1CCN(Cc2cccc(Br)c2)CC1 [Example 163] | ≤ 3 | – |
| Cc1nn(-c2ccc3nnc(C)n3n2)c(C)c1CCC(=O)N1CCN(Cc2ccc(-c3nnn[nH]3)cc2)CC1 [Example 164] | ≤ 3 | – |
| Cc1nn(-c2ccc3nnc(C)n3n2)c(C)c1CCC(=O)N1CCN(Cc2ccc3cc[nH]c3c2)CC1 [Example 165] | ≤ 10 | – |
| Cc1nn(-c2ccc3nnc(C)n3n2)c(C)c1CCC(=O)N1CCN(Cc2ccc3oc(=O)ccc3c2)CC1 [Example 166] | ≤ 10 | – |
| Cc1nn(-c2ccc3nnc(C)n3n2)c(C)c1CCC(=O)NC1CCN(c2ccccc2)CC1 [Example 167] | – | ≥ 30 |
| Cc1nn(-c2ccc3nnc(C)n3n2)c(C)c1CCC(=O)N1CCC(Oc2ccccc2)CC1 [Example 168] | ≤ 10 | – |
| Cc1nn(-c2ccc3nnc(C)n3n2)c(C)c1CCC(=O)N1CCN(Cc2ccc(-c3nnn[nH]3)cc2F)CC1 [Example 169] | ≤ 10 | – |
| Cc1nn(-c2ccc3nnc(C(F)(F)F)n3n2)c(C)c1CCC(=O)N1CCN(Cc2ccc(-c3nnn[nH]3)cc2F)CC1 [Example 170] | ≤ 3 | – |
| Cc1nn(-c2ccc3nnc(C)n3n2)c(C)c1CCC(=O)N1CCN(Cc2cc(-c3nnn[nH]3)ccc2Cl)CC1 [Example 171] | ≤ 3 | – |
| Cc1nn(-c2ccc3nnc(C(F)(F)F)n3n2)c(C)c1CCC(=O)N1CCN(Cc2cc(-c3nnn[nH]3)ccc2Cl)CC1 [Example 172] | ≤ 3 | – |

| Compound | IC50 [µM] | inhibition at 100 µM [%] |
| --- | --- | --- |
| Cc1nn(-c2ccc3nnc(C)n3n2)c(C)c1CCC(=O)N1CCN(Cc2ccc(-c3nnn[nH]3)cc2Cl)CC1 [Example 173] | ≤ 3 | – |
| Cc1nn(-c2ccc3nnc(C(F)(F)F)n3n2)c(C)c1CCC(=O)N1CCN(Cc2ccc(-c3nnn[nH]3)cc2Cl)CC1 [Example 174] | ≤ 3 | – |
| Cc1nn(-c2ccc3nnc(C)n3n2)c(C)c1CCC(=O)N1CCN(Cc2cccc(-c3nnn[nH]3)c2Cl)CC1 [Example 175] | ≤ 3 | – |
| Cc1nn(-c2ccc3nnc(C(F)(F)F)n3n2)c(C)c1CCC(=O)N1CCN(Cc2cccc(-c3nnn[nH]3)c2Cl)CC1 [Example 176] | ≤ 3 | – |
| Cc1nn(-c2ccc3nnc(C)n3n2)c(C)c1CCC(=O)N1CCN(Cc2cc(F)cc(-c3nnn[nH]3)c2)CC1 [Example 177] | ≤ 3 | – |
| Cc1nn(-c2ccc3nnc(C(F)(F)F)n3n2)c(C)c1CCC(=O)N1CCN(Cc2cc(F)cc(-c3nnn[nH]3)c2)CC1 [Example 178] | ≤ 3 | – |
| Cc1nn(-c2ccc3nnc(C)n3n2)c(C)c1CCC(=O)N1CCN(Cc2cccc(-c3nnn[nH]3)c2C)CC1 [Example 179] | ≤ 3 | – |
| Cc1nn(-c2ccc3nnc(C(F)(F)F)n3n2)c(C)c1CCC(=O)N1CCN(Cc2cccc(-c3nnn[nH]3)c2C)CC1 [Example 180] | ≤ 10 | – |
| Cc1nn(-c2ccc3nnc(C(F)(F)F)n3n2)c(C)c1CCC(=O)N1CCN(Cc2cc(F)cc(C#N)c2)CC1 [Example 181] | ≤ 30 | – |
| Cc1nn(-c2ccc3nnc(C)n3n2)c(C)c1CCC(=O)N1CCN(Cc2ccc(C#N)cc2F)CC1 [Example 182] | ≤ 10 | – |
| Cc1nn(-c2ccc3nnc(C(F)(F)F)n3n2)c(C)c1CCC(=O)N1CCN(Cc2cc(C#N)ccc2Cl)CC1 [Example 183] | ≤ 3 | – |
| Cc1nn(-c2ccc3nnc(C)n3n2)c(C)c1CCC(=O)N1CCN(Cc2cccc(C#N)c2Cl)CC1 [Example 184] | ≤ 10 | – |
| Cc1nn(-c2ccc3nnc(C)n3n2)c(C)c1CCC(=O)N1CCN(Cc2cccc(C#N)c2C)CC1 [Example 185] | ≤ 3 | – |
| Cc1nn(-c2ccc3nnc(C(F)(F)F)n3n2)c(C)c1CCC(=O)N1CCN(Cc2cccc(C#N)c2C)CC1 [Example 186] | ≤ 10 | – |
| Cc1nn(-c2ccc3nnc(C(F)(F)F)n3n2)c(C)c1CCC(=O)N1CCN(Cc2cccc(C#N)c2Cl)CC1 [Example 187] | ≤ 10 | – |
| Cc1nn(-c2ccc3nnc(C)n3n2)c(C)c1CCC(=O)N1CCN(Cc2ccc(C#N)cc2Cl)CC1 [Example 188] | ≤ 30 | – |
| Cc1nn(-c2ccc3nnc(C(F)(F)F)n3n2)c(C)c1CCC(=O)N1CCN(Cc2ccc(C#N)cc2Cl)CC1 [Example 189] | ≤ 30 | – |
| Cc1nn(-c2ccc3nnc(C(F)(F)F)n3n2)c(C)c1CCC(=O)N1CCN(Cc2ccc(C#N)cc2F)CC1 [Example 190] | ≤ 3 | – |
| Cc1nn(-c2ccc3nnc(C)n3n2)c(C)c1CCC(=O)N1CCN(Cc2cc(C#N)ccc2Cl)CC1 [Example 191] | ≤ 10 | – |

target: T2, TRAF6-Ubc13 binding in HEK293T cells (Homo sapiens, UniProt Q9Y4K3); experiment: Co-immunoprecipitation of HA-TRAF6 and Ubc13 in HEK 293T cells; format: cell-based; conditions: not given
T2 construct: RING-Zincfinger1 (RZ1) domain (residues 50-159) of human TRAF6 wildtype; expressed in transfected cells; host or cells: HEK 293T
T2 sequence (Q9Y4K3 50-159): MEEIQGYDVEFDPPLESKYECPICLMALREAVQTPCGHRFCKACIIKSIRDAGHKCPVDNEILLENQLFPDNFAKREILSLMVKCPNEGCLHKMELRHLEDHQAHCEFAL
Protocol: To study the interaction of TRAF6 and Ubc13 in cells, 1×10^6 293T cells were seeded and after 18 hours cells were transfected with 1 μg pEF-HA empty or pEF-HA-TRAF6 RZ1 plasmid using the X-tremeGENE HP DNA transfection reagent (Roche). 6 hours upon transfection, cells were treated with compound or DMSO. After 42 hours further incubation, cells were harvested in Co-IP lysis buffer and HA-TRAF6 was immunoprecipitated with anti-HA affinity matrix (Roche). Binding of Ubc13 to TRAF6 was examined in Western Blot analysis.

| Compound | interaction of endogenous Ubc13 with HA-tagged TRAF6 (co-immunoprecipitation) |
| --- | --- |
| Cc1nn(-c2ccc3nnc(C)n3n2)c(C)c1CCC(=O)N1CCN(Cc2ccccc2)CC1 [HZM06-1, 1-(4-benzylpiperazin-1-yl)-3-(3,5-dimethyl-1-(3-methyl-[1,2,4]triazolo[4,3-b]pyridazin-6-yl)-1H-pyrazol-4-yl)propan-1-one] | also active in cells |
| COc1cccc(CN2CCN(C(=O)CCc3c(C)nn(-c4ccc5nnc(C)n5n4)c3C)CC2)c1 [HZM06-2, 1-(4-(3-methoxybenzyl)piperazin-1-yl)-3-(3,5-dimethyl-1-(3-methyl-[1,2,4]triazolo[4,3-b]pyridazin-6-yl)-1H-pyrazol-4-yl)propan-1-one] | also active in cells |
| Cc1nn(-c2ccc3nnc(C)n3n2)c(C)c1CCC(=O)N1CCN(Cc2ccc(F)cc2)CC1 [HZM06-3, 1-(4-(4-fluorobenzyl)piperazin-1-yl)-3-(3,5-dimethyl-1-(3-methyl-[1,2,4]triazolo[4,3-b]pyridazin-6-yl)-1H-pyrazol-4-yl)propan-1-one] | also active in cells |

— US12240854B2, “TRAF 6 inhibitors” (Helmholtz Zentrum München - Deutsches Forschungszentrum für …, priority 2018, dated 2025)
